Where a SMILES comes first, the peptide text is derived from it. [ ]: non-standard residue; d: D form. The star is where a group is joined. Cbz = O=C(OCc1ccccc1)*; CH2Cl = ClC*; CH2F = FC*
What was measured:
[1] = biological target: T1, UCHL1 (Homo sapiens, UniProt P09936); experiment: Fluorescence-based Ub-Rho deubiquitinase activity assay; type: biochemical; parameters: made in house; settings: for IC50: 3 h of preincubation with UCHL1, technical triplicate, averages, read-out: IC50; for in vitro activity against UCHL1: up to 200 µM
T1 sequence (P09936 1-223): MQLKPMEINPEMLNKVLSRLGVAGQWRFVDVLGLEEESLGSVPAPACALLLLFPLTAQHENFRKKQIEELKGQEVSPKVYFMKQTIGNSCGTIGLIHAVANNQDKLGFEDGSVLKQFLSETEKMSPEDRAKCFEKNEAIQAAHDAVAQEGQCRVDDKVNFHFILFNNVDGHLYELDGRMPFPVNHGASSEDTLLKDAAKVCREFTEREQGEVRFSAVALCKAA
Experimental: Thus, a 3-h preincubation period was selected for the structure-activity relationship (SAR) comparison of all analogs to ensure full reaction time and for consistent comparison of activity against UCHL1 within the scaffold. […] A 10 mM stock solution was made for each inhibitor in DMSO, then a dilution of 600 µM in reaction buffer was made followed eight by 1:1 serial dilutions. […] These were allowed to incubate, while sealed, for the 3 h at room temperature. […] The % activity was plotted as a function of inhibitor concentration and the data was fitted with non-linear regression analysis to calculate the IC50 values. Errors are reported as the 95% confidence interval calculated from experiments collected in technical triplicate.

[2] = biological target: T1, UCHL1; experiment: as above; type: biochemical; parameters: made in house; settings: even after 6 h of incubation with the enzyme
[3] = SW1271 cell viability assay; type: cell-based; settings: human, SW1271 small cell lung cancer cells (luciferase-constructed), SW1271 cells
Experimental: UCHL1 is a key promoter of cell invasion and metastasis in small cell lung cancer but not necessarily required for cell viability or proliferation. Thus, we chose to assess the efficacy of targeting UCHL1 using the SW1271 small cell lung cancer cell line. […] The Ub-ABP assay was used to confirm on target engagement of UCHL1 within these cells.
Luciferase-constructed cancer cells were seeded in 96-well plates at 10,000 cells/well with the compounds at the indicated concentrations. DMSO was used as vehicle control. Luminescence readings were acquired after adding 1% D-luciferin (GoldBio, St. Louis, MO, USA) after 24 h. Cell viability was determined by the ratio of luminescence reading compared to the one at 0 h, and normalized to vehicle control.

[4] = test system: SW1271 cells; experiment: Click reaction and in-gel fluorescence of treated SW1271 cells; type: cell-based; settings: 100 µM, 4 h
Experimental: Leveraging the alkyne handle, a click reaction was performed with an azide containing sulfo-cyanine5 fluorophore (Cy5) to visualize proteins within the cells that were conjugated to either the fluoromethylketone 34 or the chloromethylketone 37. Cells were pretreated with either analog then harvested and washed to removed unreacted inhibitor. The cells were then lysed and the click reaction was performed on lysates. […] Further evaluation using proteomic profiling is warranted to gain a quantitative understanding on the potential for non-specificity at off-target cysteines.
Cells were treated with 100 µM inhibitor or DMSO for 4 h before being washed, scraped, and lysed in 200 µL of lysis buffer (1× PBS, 1% v/v Triton X-100, 0.1% w/v SDS, 1X HALT) for 30 min on ice with vigorous vortexing every 10 min. Samples were then pelleted at 17,000× g for 10 min before collecting the supernatant and measuring concentration using BCA. Samples were normalized to 2 mg/mL and stored at −80 °C overnight. The following day, samples were thawed. While thawing, a click cocktail was prepared (for each sample, the cocktail consists of: 3 µL of 1.7 mM THPTA in 1:4 tBuOH/DMSO, 1 µL of 50 mM CuSO4 in water, 1 µL of 1.25 mM Cy5-N3 in DMSO, and 1 µL of 50 mM TCEP in water freshly prepared). […] The samples were then analyzed by SDS-PAGE and imaged on a Licor Odyssey and subsequently Coomassie stained.

[5] = test system: KMS-12 cell lines; parameters: method as in PMID 31449350; settings: cells do not express UCHL1; cited from earlier work
[6] = biological target: T1, UCHL1; experiment: Time-dependent inhibitor analysis (kinact/KI); type: biochemical; parameters: made in house
Experimental: Irreversible covalent inhibitors may be further characterized by determining the reversible binding constant (KI) as well as the rate of the covalent bond formation under saturating conditions (kinact). By determining the IC50 over the course of various timepoints, the pseudo first-order rate constant (kobs) could be calculated. […] The % activity of each inhibitor concentration was the plotted vs. time of pre-incubation and the slope of this plot is the pseudo first-order rate constant (kobs) for inhibition at each concentration. The kobs was plotted as a function of inhibitor concentration and then fit to the equation Y = kinactX/(KI + X) to calculate kinact, KI and kinact/KI as described by Resnick et al..

[7] = biological target: T1, UCHL1; parameters: made in house; settings: previous studies; cited from earlier work
[8] = IC50 comparison, 3 h preincubation

IC50 [1] | Structure (SMILES) | also measured
> 200 µM | COC(=O)CC[C@H](NC(=O)[C@H](C)NC(=O)CNC(=O)OCc1ccccc1)C(=O)CF [Cpd 18] (Cbz-Gly-Ala-Glu(OMe)-CH2F) | in vitro activity against UCHL1 [1]: complete abrogation of activity
> 200 µM | COC(=O)CC[C@H](NC(=O)[C@H](CC(=O)O)NC(=O)[C@@H](NC(=O)OCc1ccccc1)C(C)C)C(=O)CF [Cpd 32] (Cbz-Val-Asp-Glu(OMe)-CH2F) | 
119 µM | COC(=O)CC[C@H](NC(=O)[C@H](C)NC(=O)[C@H](CC(N)=O)NC(=O)OCc1ccccc1)C(=O)CF [Cpd 24] (Cbz-Asn-Ala-Glu(OMe)-CH2F) | 
> 200 µM | COC(=O)CC[C@H](NC(=O)[C@H](Cc1ccccc1)NC(=O)[C@@H](NC(=O)OCc1ccccc1)C(C)C)C(=O)CF [Cpd 28] (Cbz-Val-Phe-Glu(OMe)-CH2F) | 
> 200 µM | COC(=O)CC[C@H](NC(=O)[C@H](CC(C)C)NC(=O)[C@@H](NC(=O)OCc1ccccc1)C(C)C)C(=O)CF [Cpd 27] (Cbz-Val-Leu-Glu(OMe)-CH2F) | 
100 µM | COC(=O)CC[C@H](NC(=O)[C@H](C)NC(=O)[C@@H](NC(=O)OCc1ccccc1)[C@@H](C)O)C(=O)CF [Cpd 23] (Cbz-Thr-Ala-Glu(OMe)-CH2F) | 
> 200 µM | COC(=O)CC[C@H](NC(=O)[C@@H](C)NC(=O)[C@@H](NC(=O)OCc1ccccc1)C(C)C)C(=O)CF [Cpd 26] (Cbz-Val-[dA]-Glu(OMe)-CH2F) | in vitro activity against UCHL1 [1]: loss of activity
> 200 µM | COC(=O)CC[C@H](NC(=O)[C@H](C)NC(=O)[C@H](NC(=O)OCc1ccccc1)C(C)C)C(=O)CF [Cpd 17] (Cbz-[dV]-Ala-Glu(OMe)-CH2F) | in vitro activity against UCHL1 [1]: complete loss of activity
185 µM | COC(=O)CC[C@H](NC(=O)[C@H](C)NC(=O)[C@H](CO)NC(=O)OCc1ccccc1)C(=O)CF [Cpd 22] (Cbz-Ser-Ala-Glu(OMe)-CH2F) | 
> 200 µM | CC(C)[C@H](NC(=O)OCc1ccccc1)C(=O)NCC(=O)N[C@@H](CCC(=O)O)C(=O)CF [Cpd 16] (Cbz-Val-Gly-Glu-CH2F) | in vitro activity against UCHL1 [2]: complete abrogation of activity
76 µM | COC(=O)CC[C@H](NC(=O)[C@H](C)NC(=O)[C@H](C)NC(=O)OCc1ccccc1)C(=O)CF [Cpd 19] (Cbz-Ala-Ala-Glu(OMe)-CH2F) | fold less effective than parent compound 1 [1, 8]: 3 fold
> 200 µM | C#Cc1ccc(COC(=O)N[C@H](C(=O)N[C@@H](C)C(=O)N[C@@H](CCC(=O)OC)C(=O)CCl)C(C)C)cc1 [Cpd 37] | in vitro activity against UCHL1 [1]: inactive; CC50 at 24 h [3]: 0.176 µM; proteins labelled in SW1271 cells (Cy5 click, in-gel fluorescence) [4]: non-specifically label multiple proteins within the cell
23 µM | COC(=O)CC[C@H](NC(=O)[C@H](C)NC(=O)[C@H](CC(C)C)NC(=O)OCc1ccccc1)C(=O)CF [Cpd 20] (Cbz-Leu-Ala-Glu(OMe)-CH2F) | 
 | N#CN1CCC[C@H]1C(=O)N1CCc2c(-c3cn[nH]c3C(F)(F)F)cccc21 [MT-19] | anti-proliferative properties in KMS-12 cell lines [5]: anti-proliferative properties
95 µM | COC(=O)CC[C@H](NC(=O)CNC(=O)[C@@H](NC(=O)OCc1ccccc1)C(C)C)C(=O)CF [Cpd 15] (Cbz-Val-Gly-Glu(OMe)-CH2F) | 
62 µM | C#Cc1ccc(COC(=O)N[C@H](C(=O)NCC(=O)N[C@@H](CCC(=O)OC)C(=O)CF)C(C)C)cc1 [Cpd 35] | fold more active than non-alkyne analog 15 [1, 8]: about 1.5 fold
> 200 µM | COC(=O)CC[C@H](NC(=O)[C@@H](NC(=O)[C@@H](NC(=O)OCc1ccccc1)C(C)C)[C@@H](C)O)C(=O)CF [Cpd 30] (Cbz-Val-Thr-Glu(OMe)-CH2F) | 
> 200 µM | COC(=O)CC[C@H](NC(=O)[C@H](CC(N)=O)NC(=O)[C@@H](NC(=O)OCc1ccccc1)C(C)C)C(=O)CF [Cpd 31] (Cbz-Val-Asn-Glu(OMe)-CH2F) | 
> 200 µM | COC(=O)CC[C@H](NC(=O)[C@H](CCC(=O)O)NC(=O)[C@@H](NC(=O)OCc1ccccc1)C(C)C)C(=O)CF [Cpd 33] (Cbz-Val-Glu-Glu(OMe)-CH2F) | 
13 µM | COC(=O)CC[C@H](NC(=O)[C@H](C)NC(=O)[C@H](Cc1ccccc1)NC(=O)OCc1ccccc1)C(=O)CF [Cpd 21, Cbz-L-Phe-L-Ala-L-Glu(OMe)-fluoromethylketone] (Cbz-Phe-Ala-Glu(OMe)-CH2F) | 
11 µM | C#Cc1ccc(COC(=O)N[C@@H](Cc2ccccc2)C(=O)N[C@@H](C)C(=O)N[C@@H](CCC(=O)OC)C(=O)CF)cc1 [Cpd 36] | fold more active than 1 versus UCHL1 [1, 8]: 2 fold; kinact/KI ([6]; Table 3 and text, read-out: kinact/KI): 208 M⁻¹ s⁻¹; kinact ([6]; read-out: kinact): 0.0157 s⁻¹; Ki ([6]; reversible binding constant of covalent inhibition, read-out: KI): 75.3 µM
> 200 µM | COC(=O)CC[C@H](NC(=O)[C@H](C)NC(=O)[C@H](CC(=O)O)NC(=O)OCc1ccccc1)C(=O)CF [Cpd 25] (Cbz-Asp-Ala-Glu(OMe)-CH2F) | 
100 µM | COC(=O)CC[C@H](NC(=O)[C@H](CO)NC(=O)[C@@H](NC(=O)OCc1ccccc1)C(C)C)C(=O)CF [Cpd 29] (Cbz-Val-Ser-Glu(OMe)-CH2F) | 
> 200 µM | COC(=O)CC[C@H](NC(=O)[C@H](C)NC(=O)[C@@H](NC(=O)OCc1ccccc1)C(C)C)C(=O)CCl [Cpd 14] (Cbz-Val-Ala-Glu(OMe)-CH2Cl) | in vitro activity against UCHL1 [1]: complete loss of in vitro activity; CC50 at 24 h [3]: 0.156 µM
 | COC(=O)C[C@H](NC(=O)[C@H](C)NC(=O)[C@@H](NC(=O)OCc1ccccc1)C(C)C)C(=O)CF [VADFMK] (Cbz-Val-Ala-Asp(OMe)-CH2F) | activity against UCHL1 [7]: inactive
